Data published in ChEMBL document CHEMBL3988442, “University of Dundee, Small-Polar-MMV Screening Library” (2021).

Tests used:
[1] = test system: Schistosoma mansoni; assay: High throughput screening of compounds against Schistosoma mansoni motility; assay type: functional; parameters: dose or concentration left out as unconfirmed
[2] = test system: Plasmodium falciparum; assay: Calibr Malaria Delayed Death Assay SOP; assay type: functional, organism-based; settings: for IC50: Plasmodium falciparum
[3] = target: ClpP1P2 (Mycobacterium tuberculosis (strain ATCC 25618 / H37Rv), UniProt P9WPC3+P9WPC5); assay: in vitro assay to detect presence of AMC directly proportional to the activity of ClpP1P2. GHDDI collaboration.; assay type: functional
Chain of ClpP1P2 (P9WPC5 whole entry): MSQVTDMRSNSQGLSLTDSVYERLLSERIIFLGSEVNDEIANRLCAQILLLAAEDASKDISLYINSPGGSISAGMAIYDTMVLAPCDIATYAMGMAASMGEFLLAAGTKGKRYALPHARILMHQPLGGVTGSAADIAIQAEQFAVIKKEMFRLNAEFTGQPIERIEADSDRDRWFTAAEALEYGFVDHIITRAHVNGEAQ
Chain of ClpP1P2 (P9WPC3 whole entry): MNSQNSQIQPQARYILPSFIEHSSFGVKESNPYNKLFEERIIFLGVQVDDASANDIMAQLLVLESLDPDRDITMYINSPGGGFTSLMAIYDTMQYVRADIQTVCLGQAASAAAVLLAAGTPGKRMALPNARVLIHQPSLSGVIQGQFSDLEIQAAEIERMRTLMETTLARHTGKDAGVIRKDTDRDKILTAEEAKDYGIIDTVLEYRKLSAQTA

## COCC(NC(=O)c1cnn(C)c1)c1cccc(C(F)(F)F)c1 (stereo not drawn)
[1]
  Percent Effect: -48.05%

## CNC(=O)CSc1nc2c(cnn2Cc2ccc(F)cc2)c(=O)[nH]1
[1]
  Percent Effect: -34.73%

## CS(=O)(=O)Cc1cccc(C(=O)NCC2Cc3ccccc3O2)c1 (stereo not drawn)
[1]
  Percent Effect: -78.27%

## CN(CCC(F)(F)F)C(=O)[C@H]1CSCN1C(=O)OC(C)(C)C
[1]
  Percent Effect: -27.39%

## CC(C)N1CCC(N2CCN(C3CCC3)CC2CCO)CC1 (stereo not drawn)
[1]
  Percent Effect: 7.869%

## Cn1nc(C(=O)N2CCCCC2c2nc3cc(F)ccc3[nH]2)ccc1=O (stereo not drawn)
[1]
  Percent Effect: -12.79%

## O=C(c1ccc[nH]1)N1CCC(c2nccn2Cc2ccncc2)CC1
[1]
  Percent Effect: -12.18%

## COC(=O)c1cc(OCC2CCC2)cc(C(=O)N[C@H]2CC[C@H](O)CC2)c1
[1]
  Percent Effect: -76.62%

## Cc1cc(C)n(CC2CCCN2C(=O)c2ccc3c(c2)nnn3C)n1 (stereo not drawn)
[1]
  Percent Effect: -59.08%

## Cc1nc(C)n(CC2CCCN2CC(=O)NCc2ccco2)n1 (stereo not drawn)
[1]
  Percent Effect: -29.3%

## Cn1ncc2c(NCCOc3ccc(F)cc3)nc(C3CCCC3)nc21
[1]
  Percent Effect: 106.6%

## CC(C)C(=O)N1CCN(C(=O)c2cscn2)[C@H]2CS(=O)(=O)C[C@H]21
[1]
  Percent Effect: -16.72%

## O=C(NCc1ccoc1)Nc1ccc(CN2CCOC2=O)cc1
[1]
  Percent Effect: -8.505%

## COCCCC1(CO)CCCN(CCc2ccccc2)C1 (stereo not drawn)
[1]
  Percent Effect: -47.32%

## O=C1CCC2(CCN(Cc3cc(F)cc(F)c3)CC2)CN1CCO
[1]
  Percent Effect: 4.054%

## Cc1ccc(C(=O)O)cc1S(=O)(=O)Nc1nn(-c2ccccc2)cc1C
[1]
  Percent Effect: -27.39%

## CCN(Cc1cccnc1)CC1CCCO1 (stereo not drawn)
[1]
  Percent Effect: -47.82%

## Cc1cc(C[C@@H]2COC[C@@H]2NC(=O)CN2CCCN(C)CC2)on1
[1]
  Percent Effect: -19.51%

## CC(O)CN1CCC(CNCc2ccc(S(C)(=O)=O)cc2)CC1 (stereo not drawn)
[1]
  Percent Effect: -16.24%

## COc1cccc(N2CCN(Cc3ncc[nH]3)CC2=O)c1
[1]
  Percent Effect: -64.93%

## Cc1nc(-c2ccsc2)ccc1C(=O)O
[1]
  Percent Effect: -19.43%

## CC(C)NC(=O)NCCCc1cc(N)n(-c2ccccc2)n1
[1]
  Percent Effect: -56.45%

## COCCNS(=O)(=O)c1ccc2c(c1)CCN(C(=O)c1cncn1C)C2
[1]
  Percent Effect: 4.246%

## Cc1ccn(-c2ccccc2NCc2ccccn2)n1
[1]
  Percent Effect: -12.81%

## CN(C(=O)Cn1nc(-c2ccc(F)cc2)oc1=O)C1CCS(=O)(=O)C1 (stereo not drawn)
[1]
  Percent Effect: -46.67%

## Cn1nnc2cc(C(=O)N3CCCC3Cc3ccccc3)ccc21 (stereo not drawn)
[1]
  Percent Effect: -37.55%

## CC(=O)N1CCC(Oc2ccc(C#N)cn2)CC1
[1]
  Percent Effect: -36.18%

## CCOc1cc(C)nc(N2CCN(Cc3nccn3C)CC2)n1
[1]
  Percent Effect: -40.52%

## COc1ccc(CNC(=O)NC2CCC(O)CC2)c(C(F)(F)F)c1 (stereo not drawn)
[1]
  Percent Effect: -1.236%

## CN1CCCN(C(=O)c2ccc3c(c2)nc(N2CCOCC2)n3C)CC1
[1]
  Percent Effect: -26.36%

## C1CCCN(c2nc(C3CC3)ns2)CC1
[1]
  Percent Effect: -22.51%

## O=C(c1ccc(Br)s1)N1CCN(Cc2ccc(OC(F)(F)F)cc2)CC1
[1]
  Percent Effect: 31.43%

## CCN(c1ccc(C(=O)N2CCCC(C)C2)cc1)S(=O)(=O)CC (stereo not drawn)
[1]
  Percent Effect: -11.81%

## CSCC(CCO)NC(=O)Nc1cccc(Br)c1 (stereo not drawn)
[1]
  Percent Effect: -21.75%

## COCC(O)CNC(=O)c1coc(COc2ccc3sc(C)nc3c2)n1 (stereo not drawn)
[1]
  Percent Effect: 22.1%

## Cc1cc(N2CCC(N(C)C(=O)Nc3ccccc3)CC2)nc(C)n1
[1]
  Percent Effect: -25.09%

## CC(NC(=O)N(C)Cc1ccncc1)c1nncn1C (stereo not drawn)
[1]
  Percent Effect: -16.24%

## CCCC(C)(C)NC(=O)c1ccc(CC2CC(=O)NC2=O)cc1 (stereo not drawn)
[1]
  Percent Effect: -6.374%

## Cc1n[nH]c(C)c1C1CCCN1C(=O)NCC(=O)NC(C)(C)C (stereo not drawn)
[1]
  Percent Effect: -7.96%

## O=C(CCc1ccccc1)Nc1ncccc1OC(F)F
[1]
  Percent Effect: -1.295%

## COc1cccc(OCc2cc(C(=O)NC[C@H]3CCCN3)n[nH]2)c1
[1]
  Percent Effect: -4.692%

## CCc1nnc2n1CCN(Cc1csc(-c3ccsc3)n1)C2
[1]
  Percent Effect: -55.89%

## CCC(C)NC(=O)Nc1ccc(CN2CCOC2=O)cc1 (stereo not drawn)
[1]
  Percent Effect: 3.949%

## O=S(=O)(c1ccccc1)N1CCN(CCn2ccnc2)CC1
[1]
  Percent Effect: -51.46%

## Cc1cn(-c2ccccc2)nc1NS(=O)(=O)c1cc(C(=O)O)cs1
[1]
  Percent Effect: -15.39%

## Cc1ccc(S(=O)(=O)NC2CNC(=O)C2)cc1C (stereo not drawn)
[1]
  Percent Effect: -73.52%

## COc1cccc2c1OCC(C(=O)N(C)CCCc1cnn(C)c1)C2 (stereo not drawn)
[1]
  Percent Effect: -37.39%

## Cc1cccc(CNCc2c(C(C)C)nn(C)c2N2CCOCC2)n1
[1]
  Percent Effect: -46%

## CNC(=O)COc1ccc(CNCc2ccc(F)cc2F)cc1
[1]
  Percent Effect: -31.94%

## CCOCCC(=O)N1CCCC(c2ncc[nH]2)C1 (stereo not drawn)
[1]
  Percent Effect: -61.02%

## CC(C)c1nc(CN(C)C2CCN(CC(F)(F)F)C2)no1 (stereo not drawn)
[1]
  Percent Effect: -30.86%

## CN(CCN1CCCCC1)C(=O)c1cc(CN2CCOCC2)on1
[1]
  Percent Effect: -21.55%

## Cn1c(CNc2c(F)cccc2-n2cccn2)cc(=O)n(C)c1=O
[1]
  Percent Effect: -12.04%

## CC(CNC(=O)Nc1ccc(N(C)C)nc1)Cn1cccn1 (stereo not drawn)
[1]
  Percent Effect: -28.69%

## CC(=O)c1cc(CN2C[C@H]3CC[C@@H]2CN(S(=O)(=O)N(C)C)C3)cs1
[1]
  Percent Effect: -16.28%

## O=C(CCCc1ccc(F)cc1)N1C[C@@H](CN2CCOCC2)[C@@H](CO)C1
[1]
  Percent Effect: -22.43%

## CSCC[C@H](N)C(=O)NCc1cc2n(n1)CCCN(C1CCCCC1)C2
[1]
  Percent Effect: -26.84%

## O=C(NCCN1CCC(c2cccs2)CC1)Nc1cccs1
[1]
  Percent Effect: -30.63%

## NC(=O)CN1CCCN(C(=O)c2ccn(-c3ccccc3)n2)CC1
[1]
  Percent Effect: -17.53%

## COc1ccc(NC(C)C(=O)N2CCN(Cc3ccccc3)CC2)cn1 (stereo not drawn)
[1]
  Percent Effect: -29.98%

## O=C(NCC1(CO)CC1)c1cccc2ccccc12
[1]
  Percent Effect: -62.45%

## Cc1nc[nH]c1-c1nc2cc(S(=O)(=O)N3CCCC3)ccc2n1C
[1]
  Percent Effect: -57.95%

## Cc1nc(C)n(CC2CCCN2CC(=O)NCCc2ccccc2)n1 (stereo not drawn)
[1]
  Percent Effect: -20.52%

## CN(C)CCN(Cc1cccc(C(F)(F)F)c1)C(=O)c1cc[nH]n1
[1]
  Percent Effect: 19.83%

## CC(CN1CCC2(CC1)c1nc[nH]c1CCN2S(C)(=O)=O)C(F)(F)F (stereo not drawn)
[1]
  Percent Effect: 2.483%

## CCCC(C)CN1CCC(n2cc(CCCO)nn2)CC1 (stereo not drawn)
[1]
  Percent Effect: -31.48%

## COc1ccc(C2CCCN2C(=O)CCNc2ncccn2)cc1 (stereo not drawn)
[1]
  Percent Effect: -36.49%

## CN1CCN(Cc2nnc(C3CCN(CC4CC4)CC3)n2C)CC1
[1]
  Percent Effect: -64.34%

## O=C(NCCCn1cccn1)C1(c2ccc(F)cc2)CC1
[1]
  Percent Effect: 23.22%

## Cc1ccc2cc(C3(O)CCN(C(=O)CN4CCCC4)CC3)ccc2n1
[1]
  Percent Effect: 5.836%

## O=C(NCCn1ccc(-c2ccccn2)n1)c1ccncc1
[1]
  Percent Effect: -46.65%

## Cc1nn(C)c(C)c1NC(=O)CN1CCCC1c1noc(C2CC2)n1 (stereo not drawn)
[1]
  Percent Effect: -50.94%

## Cc1ccc(C(=O)NC(CN2CCCC2=O)c2ccccc2)c(=O)[nH]1 (stereo not drawn)
[1]
  Percent Effect: -58.7%

## CN(CCc1ccccc1)c1cnn(CC(=O)N2CCSCC2)c(=O)c1
[1]
  Percent Effect: -28.25%

## CC(C)C1CN(c2ncccn2)CCC(=O)N1Cc1ccc(F)cc1 (stereo not drawn)
[1]
  Percent Effect: -32.66%

## CCN(c1ccc(C(=O)N2CCCC2)cc1)S(=O)(=O)CC
[1]
  Percent Effect: 5.771%

## CN(CC(F)(F)F)C(=O)C1CSCN1C(=O)OC(C)(C)C (stereo not drawn)
[1]
  Percent Effect: -9.988%

## Cc1ccsc1[C@@H]1CCN(C(=O)CCC(=O)N2CCCCCC2)C[C@H]1O
[1]
  Percent Effect: -14.8%

## CC(C)C(=O)NCCNc1nccc(-c2cc(C(=O)O)ccn2)n1
[1]
  Percent Effect: 19.02%

## Cc1nc(C2CCCN(C(=O)c3scnc3C)C2)no1 (stereo not drawn)
[1]
  Percent Effect: 18.51%

## CCOCCN1CCN(Cc2nnc(C3CC3)o2)CC1CC (stereo not drawn)
[1]
  Percent Effect: -4.218%

## Cc1nc(CN2CCCC2c2nc(C(C)C)no2)cs1 (stereo not drawn)
[1]
  Percent Effect: -46.84%

## Cc1noc(C)c1CN1C(=O)[C@H]2CC[C@@H]1CN(Cc1cccnc1N)C2
[1]
  Percent Effect: -25.95%

## COc1ccc(C2CCCCCN2S(=O)(=O)N(C)C)cc1 (stereo not drawn)
[1]
  Percent Effect: 18.41%

## O=C(c1cn(-c2cc(N3CCOCC3)ncn2)cn1)N1CCSCC1
[1]
  Percent Effect: -64.76%

## CNC(=O)CSc1cnn(CC(=O)Nc2cccc(Cl)c2C)c(=O)c1Cl
[1]
  Percent Effect: -12.29%

## Cc1cnc(C(=O)N(CCN(C)C)Cc2ccc(Cl)cc2)cn1
[1]
  Percent Effect: 17.37%

## Cc1cn(-c2ccccc2)nc1NS(=O)(=O)c1cccc(C(=O)O)c1
[1]
  Percent Effect: -30.44%

## CC1CN(C)c2ccccc2CN1C(=O)c1ccncc1 (stereo not drawn)
[1]
  Percent Effect: -35.26%

## CCN1CCCC1CN(CCN(C)C)S(=O)(=O)c1ccc(C#N)cc1 (stereo not drawn)
[1]
  Percent Effect: 8.845%

## CC(C)(CO)NC(=O)C1CCC(=O)N(Cc2ccc(Cl)cc2)C1 (stereo not drawn)
[1]
  Percent Effect: -0.822%

## CCn1nc(CC(C)C)cc1C(=O)NCCCOC
[1]
  Percent Effect: -69.66%

## CC(C)C(=O)N1CCN(C(=O)c2cc(C(C)C)on2)[C@H]2CS(=O)(=O)C[C@H]21
[1]
  Percent Effect: -39.14%

## CNC(=O)c1ccc(OC2CCN(S(C)(=O)=O)CC2)c(Cl)c1
[1]
  Percent Effect: 40.62%

## Cc1cc(NC(=O)CCc2ccsc2)n(C)n1
[1]
  Percent Effect: 18.83%

## CNc1nc(C(=O)N2CCCC(c3nccn3CC3CCC3)C2)cs1 (stereo not drawn)
[1]
  Percent Effect: -15.23%

## CN(C)C(=O)N1CCn2nc(CNC(=O)CCC(F)(F)F)cc2C1
[1]
  Percent Effect: 2%

## CN(C)C(=O)c1cccc(NC(=O)N(CCO)Cc2ccsc2)c1
[1]
  Percent Effect: -21.08%

## O=C(c1cc(Cl)c2c(c1)OCO2)N1CCN(c2ccccn2)CC1
[1]
  Percent Effect: -95.4%

## Cc1cc(C(=O)N2CCC(c3nccn3Cc3ccncc3)CC2)no1
[1]
  Percent Effect: -48.3%

## NC(=O)CCOc1nc(-c2ccccc2Cl)no1
[1]
  Percent Effect: -31.15%

## CC(C)COC(C)C(=O)N1CCN(S(C)(=O)=O)CC1 (stereo not drawn)
[1]
  Percent Effect: -53.15%

## COCCCC1(CO)CCCN(CCS(C)(=O)=O)C1 (stereo not drawn)
[1]
  Percent Effect: -38.37%

## COc1ccccc1OCc1cc(C(=O)N2CC=CC2C(C)C)n[nH]1 (stereo not drawn)
[1]
  Percent Effect: -26.69%

## CCn1cncc1CN1CCN(CC2(c3ccc(C)cc3)CC2)CC1.Cl
[2]
  pIC50: 6
  IC50: 1110 nM
[3]
  IC50: > 100000 nM

## Cc1cc(C)c2cc(CNC3CCCCC3)c3nn(C)c(=O)n3c2c1
[2]
  pIC50: 5.941
  IC50: 1040 nM
[3]
  IC50: > 100000 nM

## COCCN1CCC(CNC(=O)C2(c3ccc(Br)cc3)CCCC2)C1 (stereo not drawn)
[2]
  pIC50: 6.366
  IC50: 541 nM
[3]
  IC50: > 100000 nM
